Results published in US9358297B2, “Posaconazole intravenous solution formulations stabilized by substituted β-cyclodextrin” (Merck Sharp & Dohme Corp., priority 2010, dated 2016).
In brackets after ≈: the same amount, converted by molar mass. Like-named read-outs stand apart in the source and are kept apart here. One block for each compound: values may come before it.

Tests used:
[1] = Posaconazole solubility in acidified Captisol solutions; assay type: physicochemical; conditions: for solubility: acidified Captisol solution
Method: In an effort to evaluate the range of posaconazole solubilities that could be achieved at feasible pH's, a series of solutions was prepared with a fixed Captisol® concentration. Utilizing an acidic solution of 20% Captisol® (w/v), the solubility of posaconazole was increased more than 1000 times and it was determined that a target concentration of 5 mg/mL could be achieved.
Posaconazole solubility was also evaluated in acidified solutions with different Captisol® concentrations. […] Therefore, at some pH values, as the Captisol® concentration increases, the ratio of Captisol® to solubilized posaconazole will decrease. Based on this solubility effect, a formulation could be developed whereby for the same posaconazole daily dosage, the daily dose of Captisol® could be decreased.
Hydrochloric acid was used as an acidifier in the posaconazole formulation. However, several additional acidifiers (i.e., citric, sulfuric, maleic, phosphoric, acetic, L-tartaric, D-tartaric, DL-tartaric, methanesulfonic, naphthalenesulfonic, p-toluenesulfonic, lactic, L-lactic, L-ascorbic and malic acid, as well as, glycine hydrochloride) were also evaluated in regard to posaconazole solubilization.

[2] = Effect of co-solvents and non-ionic surfactants on posaconazole solubility in 100 mM Captisol; assay type: physicochemical; conditions: pH 4.5, aqueous with cosolvent or surfactant or cyclodextrin, thermodynamic from solid
Method: In an effort to explore further improvements to the formulation, the effects of various co-solvents and non-ionic surfactants, on the solubility of posaconazole in a 100 mM Captisol® solution, were examined. The Captisol® solutions were adjusted with HCl to pH 4.5 and an appropriate amount of co-solvent was added. An excess amount of posaconazole was added to the pH-adjusted cyclodextrin/co-solvent solution and the solutions were allowed to equilibrate for a period of three days. The contents of the vials were then centrifuged and the supernatant was assayed for posaconazole.

[3] = Posaconazole solubility in modified β and γ-cyclodextrins; assay type: physicochemical; conditions: for solubility: pH 4.5, aqueous with cosolvent or surfactant or cyclodextrin; for fold more posaconazole solubilized than Captisol: 100 mM cyclodextrin solutions
Method: The solubilities of posaconazole in each of several modified β and γ-cyclodextrins were evaluated. Solubilization of posaconazole was tested with three gamma cyclodextrins; SBE (5.2)-gamma, SBE (5.2) Et (3.9)-gamma and SBE (5.2) Et (4.9)-gamma cyclodextrin, (CyDex, Inc.).
On the other hand, some changes in β-cyclodextrin substitutions did lead to greater solubilization. Utilizing 100 mM cylodextrin solutions at pH 4.5, solubilization of posaconazole with SBE (4.6)-β, SBE (4.6)-Et (3.5)-β and SBE (4.6)-Et (8.5)-β cyclodextrins, versus Captisol®, was evaluated. The SBE (4.6)-Et (3.5)-β and SBE (4.6)-Et (8.5)-β cyclodextrins solubilized 2.6 and 6.6 fold more posaconazole (respectively) than did Captisol® (See FIG. 2). However, the extensive Captisol® safety information outweighed the potential benefits of greater solubilization and, for this reason, formulations with other sulfobutyl ether cyclodextrins were not further developed.

[4] = neutral and basic aqueous solutions; cited from earlier work
[5] = in water; cited from earlier work

- solubility ([1]; pH 3, aqueous with cosolvent or surfactant or cyclodextrin, 20% Captisol, pH 3.0): 8700 µg/mL (≈ 12.4 mM)
- solubility ([1]; pH 3.1, aqueous with cosolvent or surfactant or cyclodextrin, 20% Captisol, pH 3.1, calculated average of measured solubility at pH 3.0 and pH 3.2): 7800 µg/mL (≈ 11.1 mM)
- solubility ([1]; pH 3.1, aqueous with cosolvent or surfactant or cyclodextrin, 40% Captisol, pH 3.1): 22500 µg/mL (≈ 32.1 mM)
- solubility ([1]; pH 3.2, aqueous with cosolvent or surfactant or cyclodextrin, 20% Captisol, pH 3.2): 6900 µg/mL (≈ 9.85 mM)
- solubility ([1]; pH 3.4, aqueous with cosolvent or surfactant or cyclodextrin, 20% Captisol, pH 3.4): 5200 µg/mL (≈ 7.42 mM)
- solubility ([1]; pH 3.6, aqueous with cosolvent or surfactant or cyclodextrin, 20% Captisol, pH 3.6): 4000 µg/mL (≈ 5.71 mM)
- solubility ([1]; pH 3.8, aqueous with cosolvent or surfactant or cyclodextrin, 20% Captisol, pH 3.8): 3100 µg/mL (≈ 4.42 mM)
- posaconazole solubilization with additional acidifiers versus hydrochloric acid ([1]; citric, sulfuric, maleic, phosphoric, acetic, tartaric, sulfonic, lactic, ascorbic, malic acids, glycine hydrochloride, same pH): no improvement in solubility
- solubility at 3 days ([2]; Captisol solution with co-solvent, 100 mM Captisol pH 4.5 + 10% PEG 400): 1280 µg/mL
- solubility at 3 days ([2]; Captisol solution with co-solvent, 100 mM Captisol pH 4.5 + 10% PVP): 640 µg/mL
- solubility at 3 days ([2]; Captisol solution with co-solvent, 100 mM Captisol pH 4.5 + 10% Propylene Glycol): 410 µg/mL
- solubility at 3 days ([2]; Captisol solution with surfactant, 100 mM Captisol pH 4.5 + 0.1% Poloxamer F-68): 1630 µg/mL
- solubility at 3 days ([2]; Captisol solution with surfactant, 100 mM Captisol pH 4.5 + 0.1% Tween 20): 1710 µg/mL
- solubility at 3 days ([2]; Captisol solution with surfactant, 100 mM Captisol pH 4.5 + 0.1% Tween 80): 1740 µg/mL
- solubility at 3 days ([2]; Captisol solution, Control (100 mM Captisol), pH 4.5, three days equilibration): 1770 µg/mL (≈ 2.53 mM)
- fold less solubility with gamma cyclodextrins than with Captisol ([3]; pH 4.5): approximately 8 fold
- solubility ([3]; highest posaconazole solubility achieved): 189 µg/mL (≈ 0.27 mM)
- solubility ([3]; posaconazole solubility): 1510 µg/mL (≈ 2.15 mM)
Compound: CC[C@@H]([C@H](C)O)n1ncn(-c2ccc(N3CCN(c4ccc(OC[C@@H]5CO[C@@](Cn6cncn6)(c6ccc(F)cc6F)C5)cc4)CC3)cc2)c1=O [Posaconazole, posaconazole]
- solubility [4]: less than 1 μg/mL

- fold more posaconazole solubilized than Captisol ([3]; pH 4.5): 2.6 fold
Compound: SBE (4.6)-Et (3.5)-β cyclodextrin

- fold more posaconazole solubilized than Captisol ([3]; pH 4.5): 6.6 fold
Compound: SBE (4.6)-Et (8.5)-β cyclodextrin

Compound: Sulfobutyl ether-β-cyclodextrins, (SBE-β-CD) sodium salt [Captisol®]
- solubility [5]: >800 mg/mL in water
